Experiment [1] deals with TNFα. As to the kind of experiment: cells. The note with it: LPS-stimulated human monocytes, TNFα content, read-out: EC50 TNF. Format: cell-based, human.
Experiment [2] addresses IRAK4 enzyme (Homo sapiens (Human), UniProt Q9NWZ3). As to the kind of experiment: biochemical. The note with it: IRAK4 enzyme, TR-FRET, 500 μM ATP. Format: biochemical. In general terms: Time-resolved FRET reads energy transfer from a long-lived donor to a nearby acceptor.

What is called EC50 is the concentration giving half of the maximal effect. By IC50 is commonly meant the concentration that inhibits the measured activity by half. A lower IC50 goes with higher potency.

Read-outs that look alike come from different tables or passages of the source.

Sequence of IRAK4 enzyme (Q9NWZ3 whole entry): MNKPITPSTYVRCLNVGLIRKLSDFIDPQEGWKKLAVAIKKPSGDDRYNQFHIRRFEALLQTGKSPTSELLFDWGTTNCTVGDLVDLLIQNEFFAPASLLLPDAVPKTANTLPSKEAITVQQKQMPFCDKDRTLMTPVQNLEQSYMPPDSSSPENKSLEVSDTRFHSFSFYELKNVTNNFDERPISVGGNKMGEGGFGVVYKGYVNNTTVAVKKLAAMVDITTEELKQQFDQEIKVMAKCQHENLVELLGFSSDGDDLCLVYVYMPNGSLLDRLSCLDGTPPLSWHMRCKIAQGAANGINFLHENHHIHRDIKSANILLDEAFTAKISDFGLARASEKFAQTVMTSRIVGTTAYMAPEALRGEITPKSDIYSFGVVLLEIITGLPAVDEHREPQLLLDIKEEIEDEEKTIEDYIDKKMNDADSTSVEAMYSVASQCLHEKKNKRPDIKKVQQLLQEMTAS

For the compound `CC(C)(O)[C@H](F)CNC(=O)c1cnc(-c2ccc3cc(C#N)cnn23)cc1NC1CCNCC1` [Example 23, (R)-6-(3-cyanopyrrolo[1,2-b]pyridazin-7-yl)-N-(2-fluoro-3-hydroxy-3-methylbutyl)-4-(piperidin-4-ylamino)nicotinamide], the EC50 in experiment [1] (Homo sapiens, Monocyte) is 0.676 µM. Besides, the midpoint of inhibition in experiment [2], the IC50, lay at 0.003 µM.
As to `CC(C)(O)[C@H](F)CNC(=O)c1cnc(-c2ccc3cc(C#N)cnn23)cc1NC1CC2CCC(C1)N2` (stereo partly drawn) [Example 24, 4-(((1R,3s,5S)-8-azabicyclo[3.2.1]octan-3-yl)amino)-6-(3-cyanopyrrolo[1,2-b]pyridazin-7-yl)-N-((R)-2-fluoro-3-hydroxy-3-methylbutyl)nicotinamide], the EC50 in experiment [1] was 0.642 µM. This compound gave a 50% inhibitory concentration (IC50) in experiment [2] of 0.002 µM.
In the same order, the values of `CC(C)(O)[C@H](F)CNC(=O)c1cnc(-c2ccc3cc(C#N)cnn23)cc1NC1CC2CCC(C1)N2S(C)(=O)=O` (stereo partly drawn) [Example 29, 6-(3-cyanopyrrolo[1,2-b]pyridazin-7-yl)-N-((R)-2-fluoro-3-hydroxy-3-methylbutyl)-4-(((1R,3s,5S)-8-(methylsulfonyl)-8-azabicyclo[3.2.1]octan-3-yl)amino)nicotinamide] are 0.1 µM and < 0.001 µM.
For the compound `CC(C)(O)[C@H](F)CNC(=O)c1cnc(-c2ccc3cc(C#N)cnn23)cc1NC1C2CC1CN(S(C)(=O)=O)C2` (stereo partly drawn) [Example 30, 6-(3-cyanopyrrolo[1,2-b]pyridazin-7-yl)-N-((R)-2-fluoro-3-hydroxy-3-methyl-butyl)-4-((3-(methylsulfonyl)-3-azabicyclo[3.1.1]heptan-6-yl)amino)nicotinamide], in experiment [1] (Homo sapiens, Monocyte), the EC50 came out at 0.732 µM. Moreover, the IC50 in experiment [2] was found to be 0.003 µM.
With `CC(C)(O)[C@H](F)CNC(=O)c1cnc(-c2ccc3cc(C#N)cnn23)cc1NC1C2CCC1CN(S(C)(=O)=O)C2` (stereo partly drawn) [Example 31, 6-(3-cyanopyrrolo[1,2-b]pyridazin-7-yl)-N-((R)-2-fluoro-3-hydroxy-3-methylbutyl)-4-((3-(methylsulfonyl)-3-azabicyclo[3.2.1]octan-8-yl)amino)nicotinamide], the EC50 in experiment [1] (Homo sapiens, Monocyte) amounted to 0.757 µM. The same compound had a half-inhibitory concentration (IC50) in experiment [2] of 0.016 µM.
For the compound `CC(C)(O)[C@H](F)CNC(=O)c1cnc(-c2ccc3cc(C#N)cnn23)cc1N[C@H]1C[C@@H]2C[C@H]1CN2` [Example 32, 4-(((1S,4S,5S)-2-azabicyclo[2.2.1]heptan-5-yl)amino)-6-(3-cyano-pyrrolo[1,2-b]pyridazin-7-yl)-N-((R)-2-fluoro-3-hydroxy-3-methylbutyl)nicotinamide], the EC50 in experiment [1] (Homo sapiens, Monocyte) was > 10 µM. Besides, the IC50 in experiment [2] came to 0.003 µM.
As to `CC(C)(C)Nc1cc(-c2ccc3cc(C#N)cnn23)ncc1C(=O)NC[C@@H](F)C(C)(C)O` [Example 33, (R)-4-(tert-butylamino)-6-(3-cyanopyrrolo[1,2-b]pyridazin-7-yl)-N-(2-fluoro-3-hydroxy-3-methylbutyl)nicotinamide], the EC50 in experiment [1] (Homo sapiens, Monocyte) was 0.029 µM. Besides, the IC50 in experiment [2] is < 0.001 µM.
As to `CC(C)Nc1cc(-c2ccc3cc(C#N)cnn23)ncc1C(=O)NS(C)(=O)=O` [Example 34, 6-(3-cyanopyrrolo[1,2-b]pyridazin-7-yl)-4-(isopropylamino)-N-(methylsulfonyl) nicotinamide], the EC50 in experiment [1] (Homo sapiens, Monocyte) is > 10 µM. In addition, the concentration for half-maximal inhibition (IC50) in experiment [2] worked out at 9.38 µM.
For the compound `CC(C)Nc1cc(-c2ccc3cc(C#N)cnn23)ncc1C(=O)N[C@H]1CCOC1` [Example 36, (S)-6-(3-cyanopyrrolo[1,2-b]pyridazin-7-yl)-4-(isopropylamino)-N-(tetrahydrofuran-3-yl) nicotinamide], the concentration giving a half-maximal response (EC50) in experiment [1] (Homo sapiens, Monocyte) was 0.221 µM. The midpoint of inhibition in experiment [2], the IC50, lay at 0.015 µM.
With `CC(C)Nc1cc(-c2ccc3cc(C#N)cnn23)ncc1C(=O)N[C@@H]1CCOC1` [Example 37, (R)-6-(3-cyanopyrrolo[1,2-b]pyridazin-7-yl)-4-(isopropylamino)-N-(tetrahydrofuran-3-yl) nicotinamide], in experiment [1] (Homo sapiens, Monocyte), the EC50 came out at 0.283 µM. The compound further showed an IC50 in experiment [2] of 0.012 µM.
On to `CNC(=O)c1cnc(-c2ccc3cc(C#N)cnn23)cc1NC(C)C` [Example 38, 6-(3-cyanopyrrolo[1,2-b]pyridazin-7-yl)-4-(isopropylamino)-N-methylnicotinamide], for which the EC50 in experiment [1] (Homo sapiens, Monocyte) is 0.091 µM. Further, inhibition in experiment [2] was half-maximal at 0.002 µM (IC50).
As to `CC(C)Nc1cc(-c2ccc3cc(C#N)cnn23)ncc1C(N)=O` [Example 39, 6-(3-cyanopyrrolo[1,2-b]pyridazin-7-yl)-4-(isopropylamino) nicotinamide], the EC50 in experiment [1] (Homo sapiens, Monocyte) was 0.507 µM. Besides, it took 0.004 µM to reach half-maximal inhibition in experiment [2] (IC50).
In the same order, the values of `CC(C)(O)[C@H](F)CNC(=O)c1cnc(-c2ccc3cc(C#N)cnn23)cc1NC1CC(F)(F)C1` [Example 40, (R)-6-(3-cyanopyrrolo[1,2-b]pyridazin-7-yl)-4-((3,3-difluorocyclobutyl)amino)-N-(2-fluoro-3-hydroxy-3-methylbutyl)nicotinamide] are 0.073 µM and < 0.001 µM.
In the same order, the values of `CC(C)Nc1cc(-c2ccc3cc(C#N)cnn23)ncc1C(=O)NCCC(C)(C)O` [Example 41, 6-(3-cyanopyrrolo[1,2-b]pyridazin-7-yl)-N-(3-hydroxy-3-methylbutyl)-4-(isopropylamino) nicotinamide] are 0.078 µM and < 0.001 µM.
In the same order, the values of `CC(C)(O)[C@H](F)CNC(=O)c1cnc(-c2ccc3cc(C#N)cnn23)cc1NC1CCOCC1` [Example 42, (R)-6-(3-cyanopyrrolo[1,2-b]pyridazin-7-yl)-N-(2-fluoro-3-hydroxy-3-methylbutyl)-4-((tetrahydro-2H-pyran-4-yl)amino)nicotinamide] are 0.035 µM and < 0.001 µM.
In the case of `CC(C)(O)[C@H](F)CNC(=O)c1cnc(-c2ccc3cc(C#N)cnn23)cc1Nc1cnn(C2COC2)c1` [Example 43, (R)-6-(3-cyanopyrrolo[1,2-b]pyridazin-7-yl)-N-(2-fluoro-3-hydroxy-3-methyl-butyl)-4-((1-(oxetan-3-yl)-1H-pyrazol-4-yl)amino) nicotinamide], in experiment [1] (Homo sapiens, Monocyte), the concentration giving a half-maximal response (EC50) stood at 0.03 µM. Also, the half-maximal inhibitory concentration (IC50) in experiment [2] is < 0.001 µM.
In the same order, the values of `CC(C)(O)[C@H](F)CNC(=O)c1cnc(-c2ccc3cc(C#N)cnn23)cc1NN1CCOCC1` [Example 44, (R)-6-(3-cyanopyrrolo[1,2-b]pyridazin-7-yl)-N-(2-fluoro-3-hydroxy-3-methylbutyl)-4-(morpholinoamino) nicotinamide] are > 10 µM and 6.63 µM.
For `CC(C)Nc1cc(-c2ccc3cc(C#N)cnn23)ncc1C(=O)NC1CC1CO` (stereo not shown) [Example 45, 6-(3-cyanopyrrolo[1,2-b]pyridazin-7-yl)-N-(2-(hydroxymethyl)cyclopropyl)-4-(isopropylamino) nicotinamide], in that order: 0.255 µM and 0.01 µM.
In the same order, the values of `CC(C)(O)[C@H](F)CNC(=O)c1cnc(-c2ccc3cc(C#N)cnn23)cc1NC1CCN(S(C)(=O)=O)CC1` [Example 46, (R)-6-(3-cyanopyrrolo[1,2-b]pyridazin-7-yl)-N-(2-fluoro-3-hydroxy-3-methylbutyl)-4-((1-(methylsulfonyl)piperidin-4-yl)amino)nicotinamide] are 0.037 µM and < 0.001 µM.
On to `Cn1cc(Nc2cc(-c3ccc4cc(C#N)cnn34)ncc2C(=O)NC[C@@H](F)C(C)(C)O)cn1` [Example 47, (R)-6-(3-cyanopyrrolo[1,2-b]pyridazin-7-yl)-N-(2-fluoro-3-hydroxy-3-methylbutyl)-4-((1-methyl-1H-pyrazol-4-yl)amino)nicotinamide], for which the EC50 in experiment [1] (Homo sapiens, Monocyte) came to 0.037 µM. Moreover, in experiment [2], the IC50 is < 0.001 µM.
On to `CC(C)(O)[C@H](F)CNC(=O)c1cnc(-c2ccc3cc(C#N)cnn23)cc1Nc1cnn(C(F)F)c1` [Example 48, (R)-6-(3-cyanopyrrolo[1,2-b]pyridazin-7-yl)-4-((1-(difluoromethyl)-1H-pyrazol-4-yl)amino)-N-(2-fluoro-3-hydroxy-3-methylbutyl)nicotinamide], for which, in experiment [1] (Homo sapiens, Monocyte), the EC50 was determined as 0.028 µM. Besides, the half-maximal inhibitory concentration (IC50) in experiment [2] was < 0.001 µM.
`CC(C)(O)[C@H](F)CNC(=O)c1cnc(-c2ccc3cc(C#N)cnn23)cc1Nc1cnn(CC(F)(F)F)c1` [Example 49, (R)-6-(3-cyanopyrrolo[1,2-b]pyridazin-7-yl)-N-(2-fluoro-3-hydroxy-3-methylbutyl)-4-((1-(2,2,2-trifluoroethyl)-1H-pyrazol-4-yl)amino)nicotinamide]: in experiment [1] (Homo sapiens, Monocyte), the concentration giving a half-maximal response (EC50) was 0.008 µM. The IC50 in experiment [2] was < 0.001 µM.
Consider `CC(C)(O)[C@H](F)CNC(=O)c1cnc(-c2ccc3cc(C#N)cnn23)cc1NC1CC2CCC(C1)O2` (stereo partly drawn) [Example 50, 4-(8-oxabicyclo[3.2.1]octan-3-ylamino)-6-(3-cyanopyrrolo[1,2-b]pyridazin-7-yl)-N-((R)-2-fluoro-3-hydroxy-3-methylbutyl) nicotinamide], for which the EC50 in experiment [1] (Homo sapiens, Monocyte) was 0.351 µM. In experiment [2], inhibition was half-maximal at 0.003 µM (IC50).
Consider `CC(C)(O)[C@H](F)CNC(=O)c1cnc(-c2ccc3cc(C#N)cnn23)cc1N[C@@H]1CCN(S(C)(=O)=O)C1` [Example 53, 6-(3-cyanopyrrolo[1,2-b]pyridazin-7-yl)-N-((R)-2-fluoro-3-hydroxy-3-methylbutyl)-4-(((R)-1-(methylsulfonyl)pyrrolidin-3-yl)amino)nicotinamide], for which the EC50 in experiment [1] (Homo sapiens, Monocyte) was 0.065 µM. Besides, the IC50 in experiment [2] is < 0.001 µM.
In the case of `CC(C)(O)[C@H](F)CNC(=O)c1cnc(-c2ccc3cc(C#N)cnn23)cc1NC1COC1` [Example 54, (R)-6-(3-cyanopyrrolo[1,2-b]pyridazin-7-yl)-N-(2-fluoro-3-hydroxy-3-methylbutyl)-4-(oxetan-3-ylamino)nicotinamide], the EC50 in experiment [1] (Homo sapiens, Monocyte) came out at 0.026 µM. Moreover, in experiment [2], the IC50 was < 0.001 µM.
With `CCn1cc(Nc2cc(-c3ccc4cc(C#N)cnn34)ncc2C(=O)NC[C@@H](F)C(C)(C)O)cn1` [Example 56, (R)-6-(3-cyanopyrrolo[1,2-b]pyridazin-7-yl)-4-((1-ethyl-1H-pyrazol-4-yl)amino)-N-(2-fluoro-3-hydroxy-3-methylbutyl)nicotinamide], the EC50 in experiment [1] (Homo sapiens, Monocyte) was 0.013 µM. In addition, in experiment [2], the IC50 was < 0.001 µM.

For the origin of these results see patent US10336762B2 (priority 2017, dated 2019).
